Measurements taken from patent US20210317111A1, “NOVEL MEDICAMENT FOR TREATING INFLAMMATORY BOWEL DISEASE” (OTSUKA PHARMACEUTICAL CO., LTD., priority 2018, published 2021).
Converted amounts (≈) assume the structure as drawn.

Key:
[1] = tested on: Mycobacterium avium subspecies paratuberculosis (MAP); assay: antibacterial activity (MIC), broth microdilution method; format: cell-based; settings: 336 h
Procedure: The chronic enterocolitis of ruminants which is caused by Mycobacterium avium subspecies paratuberculosis (MAP) is similar to Crohn's disease. […] Thus, the antibacterial activity of the present compound against MAP was evaluated. The used comparative drugs for the present compound were rifaximin (RFX), ciprofloxacin (CPFX), metronidazole (MTZ), clarithromycin (CAM), rifabutin (RBT), and clofazimine (CFZ).
The antibacterial activity (minimum inhibitory concentration (MIC)) was assayed by broth microdilution method which is based on Clinical and laboratory standards institute (CLSI).
The 5 strains of MAP were inoculated onto Middlebrook 7H9 agar containing 10% dubos oleic albumin complex (OADC), Tween 80 (0.5 g/L), mycobactin J (2 mg/L), and 1.5% agar, and pre-cultured at 37° C. under an aerobic condition for 14 days. After the pre-culture, the bacterial cell was scraped out from the agar, and prepared to the turbidity of 0.5 Mcfarland standard using Middlebrook 7H9 broth containing 10% dubos oleic albumin complex (OADC), Tween 80 (0.5 g/L), and mycobactin J (2 mg/L)]. The 10-fold diluted solution of the bacterial suspension was inoculated onto Middlebrook 7H9 broth 96-well plate which contains the present compound or any one of the comparative drugs, and incubated at 37° C. under an aerobic condition for 14 days.
After the incubation, the bacterial growth in each well of the 96-well plate was visually checked. The minimum concentration at which the bacterial growth was not observed, compared with the result of the well containing neither present compound nor comparative drug was determined as MIC of the present compound or each comparative drug against each test bacterium.

[2] = tested on: Fusobacterium spp.; assay: antibacterial activity (MIC), agar plate dilution method; format: cell-based; settings: 17 strains of Fusobacterium spp.; anaerobic, 37° C.
Procedure: There are plural reports about the relationship between intestinal bacteria and inflammatory bowel disease, and it is thought that Fusobacterium spp., one of the intestinal bacteria is a pathogenic bacteria causing inflammatory bowel disease. […] The antibacterial activity (minimum inhibitory concentration (MIC)) was assayed by agar plate dilution method which is based on Clinical and laboratory standards institute (CLSI). The medium used herein was Brucella medium with sheep blood. […] The bacterial suspension was inoculated onto Brucella agar with sheep blood which contains the present compound or any one of the comparative drugs, and incubated at 37° C. under an anaerobic condition.

[3] = tested on: TNF-α; assay: TNF-α production by stimulated PBMC (ELISA); format: cell-based; settings: stimulated human PBMC, 3 days, culture supernatant
Procedure: (§1) Peripheral blood (30 mL) derived from a healthy adult was layered on a lymphocyte tube Leucosep™ containing Lymphoprep (15 mL), and the tube was centrifuged at room temperature at 2000 rpm for 20 minutes. After the centrifugation, the upper 5 mL of the plasma was removed from the peripheral blood mononuclear cell (PBMC) layer with an aspirator, and the left solution containing the PBMC layer was collected into a new 50 mL tube. To the collected solution was added an equal amount of Hanks' balanced salt solution (HBSS) to dilute the cell suspension. The diluted solution was centrifuged at 4° C. at 1800 rpm for 5 minutes. After the centrifugation, the supernatant was discarded, the rest was suspended in 10 mL of AIM-V. The suspension was centrifuged at 4° C. at 1500 rpm for 5 minutes, and the supernatant was discarded. The same washing process was repeated one more time. After the centrifugation, the supernatant was discarded, and the obtained cell was suspended in 5% FBS-containing AIM-V to be used in the following tests.
(§2) To 96-well round-bottom plate were added 100 μL of medium containing the compound, 100 μL (0.5×10^5 beads) of anti-CD3/CD28/CD2-loaded bead suspension (Miltenyi), and 100 μL (1×10^5 cells) of PBMC suspension. The mixture was incubated at 37° C. in 5% CO2 for 3 days.

[4] = tested on: IFN-γ; assay: IFN-γ production by stimulated PBMC (ELISA); format: cell-based; settings: stimulated human PBMC, 3 days, culture supernatant
Procedure: as §1, §2

[5] = tested on: proliferated T cell; assay: T-cell proliferation (CFSE) in stimulated PBMC; format: cell-based, human; settings: both CD4-positive and CD8-positive T-cell; 2 days
Procedure: as §1, with “tests. […]” for “tests.”

[6] = tested on: activated T cell (CD25+ cell); assay: T-cell activation (CD25+ cells) in anti-CD3/CD28/CD2 bead-stimulated PBMC; format: cell-based, human; settings: both CD4-positive and CD8-positive T-cell
Procedure: as §1, §2

[7] = tested on: TNF-α production; assay: inhibition of LPS-induced TNF-α production in human peripheral blood (ELISA); format: cell-based; settings: 24 hours
Procedure: The LPS solution which was adjusted to 2 μg/mL with RPMI 1640 medium was added to 48-well plate in the amount of 250 μL/well. The each diluted solution of each test compound and the diluted solution of the solvent control were added to 3 wells for each concentration in the amount of 50 μL/well, 4-fold diluted solution of human peripheral blood was added to each well (200 μL/well), and the wells were incubated at 37° C. in 5% CO2 for 24 hours. As LPS (−) control, RPMI 1640 medium without added LPS was prepared in the same manner. The final concentrations of each test sample were adjusted to 0, 1, 3, 10, 30, and 100 μM, and the final concentration of prednisolone was adjusted to 0.3 μM. 24 hours later from the incubation, each supernatant was collected and stored at −80° C. until the measurement of the TNF-α concentration.
The TNF-α concentration was measured by ELISA with Human TNF-alpha Quantikine ELISA Kit (R & D Systems). Each sample was unfrozen at room temperature, and diluted with Calibrator Diluent RD6-35 (1×) of the kit by 10-fold. The 10-fold diluted supernatant and the TNF-α standard solution were added on TNF-α microplate, and reacted according to the operating manual of the kit. After the coloring, the absorbance at wave length of 450 nm was measured with a microplate reader (Multiskan FC; Thermo Fisher […]), and the calibration curve was prepared with an analysis software (Skanit Software 3.1.0.4 RE for Multiskan FC (ja)) to read the TNF-α concentration of each sample. Calibration curve used a 4-parameter logistic curve.
The inhibition rates were presented as the mean±standard deviation using Microsoft Excel 2010. For each blood donor, the TNF-α production rate under each compound concentration was calculated with the TNF-α concentration in the supernatant of the solvent group as 100%.
The results are averages of the measurements obtained from the human peripheral blood of three volunteers.

## Cc1c(-c2cnc(N)c(C#N)c2)c(F)cc2c(=O)c(C(=O)O)cn(C3CC3)c12 [the present compound, 7-(6-amino-5-cyanopyridin-3-yl)-1-cyclopropyl-6-fluoro-1,4-dihydro-8-methyl-4-oxo-3-quinoline-carboxylic acid]
[1]
  MIC: 0.06 to 0.5 µg/mL (≈ 0.159 to 1.32 µM)
[2]
  MIC: 0.25 to 1 µg/mL (≈ 0.661 to 2.64 µM)
[3]
  cytokine production (TNF-α): decreased
[4]
  cytokine production (IFN-γ): decreased
[5]
  inhibition of T cell proliferation (MFI CFSE): effect of cell growth inhibition
[6]; 30 μM
  inhibitory activity on T cell activation compared with prednisolone: higher inhibitory activity than prednisolone
[6]; 6 people's human PBMC, 3 days
  rate of activated T cell: decreased
[7]; 100 μM, human peripheral blood
  inhibitory effect on TNF-α production at 100 μM: completely inhibited
[7]; 1, 3, 10, 30, 100 μM, human peripheral blood
  inhibitory activity for TNF-α production over concentration range: dose-dependent manner
[7]; human peripheral blood of three volunteers
  IC50: 6.25 µM
